Experimental data: patent US20240246968A1, “SMALL MOLECULE INHIBITORS OF KRAS G12C MUTANT” (Merck Sharp & Dohme LLC, priority 2021, published 2024)

Experiments:
[1] = molecular target: Gppcp-bound recombinant K-Ras4B G12C mutant protein (amino acids 1-169, C51S/C80L/C118S) (Homo sapiens, UniProt P01116, C118S/C51S/C80L/G12C); experiment: KRASG12C binding assay (LC-MS, compound binding rate); conditions: test compound final concentration 0.5 μM, 25° C., 1 hour
Protocol: As test compounds for the KRASG12C binding assay, the compounds obtained in the “Preparation of Compounds” section were used. Sample solutions each containing a test compound were prepared in the form of a 10 mM DMSO solution.
Gppcp-bound recombinant K-Ras4B G12C mutant protein (amino acids 1-169, C51S/C80L/C118S, SEQ ID NO:1) was diluted with a buffer (1×TBS, 0.1 mM TCEP, 0.25 mM MgCl2, 50 μM Gppcp) to prepare a 50 nM protein solution. K-Ras4B is the major splicing variant of K-Ras. Amino acid sequence of residues 1 to 150 including the compounds' binding region of K-Ras4B is exactly same as that of K-Ras4A, the other splicing variant (Oncotarget. 2016 Jul. 19; 7(29): 46717-46733). A sample solution containing 10 mM test compound was diluted ten-fold with DMSO to make a 1 mM sample solution, and then diluted twenty-fold with DMSO to make a 50 μM sample solution. 1 μL of a 50 μM sample solution was added to 100 μL of a 50 nM protein solution to adjust the final concentration of a test compound to be 0.5 μM in the mixture. The mixtures were stored in an incubator at 25° C. for 1 hour, and 10 μL of a 1×TBS solution containing 2% formic acid was added to stop the reaction, followed by LC-MS measurement. LC-MS measurement was performed using Xevo G2-S Q-Tof manufactured by Waters, and reverse-phase chromatography was performed with a desalting column. A mass spectrum of positive ions was obtained by electrospray. For a mass spectrum, a spectrum of polyvalent ions was collectively converted to a molecular weight by using OpenLynx software by the MaxEnt technique, and a compound binding rate was calculated from the ratio of the signal intensity of a peak that corresponds to the molecular weight of the protein to the signal intensity of a peak that corresponds to the molecular weight of the protein conjugated with the compound.
The binding assay of the test compounds was conducted at a final concentration of 0.5 μM. A binding rate of 80% or more is rated “A”, a binding rate of 60% or more and less than 80% is rated “B”, a binding rate of 40% or more and less than 60% is rated “C”, a binding rate of 20% or more and less than 40% is rated “D”, and a binding rate of less than 20% is rated “E”. N.D.=not determined. Binding rate % is the ratio of KRAS signal intensity at the molecular weight of one molecule adduct to the sum of all the KRAS signal intensity (unbound form and adducts) in mass spectrum. Thus, binding rate 100% means that only the one molecule adduct was observed without any unbound KRAS. The following tables show the results.

[2] = molecular target: T1, interaction between recombinant K-Ras4B G12C mutant protein and cRAF RAS-binding domain (cRAF-RBD) (Homo sapiens, UniProt P01116, G12C); experiment: Inhibitory activity on interaction between KRAS G12C and cRAF (Alpha technology); type: biochemical; conditions: GMPPNP-bound KRAS G12C incubated with compound at 25° C. for 1 hour, then cRAF-RBD; Alpha signal
T1 construct: made in house; host or cells: E. coli
Protocol: Interaction between recombinant K-Ras4B G12C mutant protein (amino acids 1-169, SEQ ID NO:2) and cRAF RAS-binding domain (cRAF-RBD, amino acids 50-132, Jena Biosciences GmbH) was measured using Alpha technology (PerkinElmer Inc.).
Recombinant KRAS G12C protein with an N-terminal His-tag was expressed in E. coli and purified by affinity chromatography. To prepare GTP-bound form and GDP-bound form of KRAS G12C protein. 50 μM KRAS G12C protein was incubated with 1 mM GMPPNP (Guanosine-5′-[(β,γ)-imido]triphosphate. Tetralithium salt)(Jena Bioscience GmbH) and 1 mM GDP, respectively, in a loading buffer (20 mM Tris-HCl (pH 7.5), 50 mM NaCl, 1 mM DTT and 2.5 mM EDTA) for 1 hour on ice. After the incubation, MgCl2 was added to a final concentration of 10 mM, followed by incubation at room temperature for 30 minutes. The mixture was allowed to pass through a NAP-5 column to remove free nucleotides and purified, and the resultant nucleotide-bound KRAS G12C protein was used for compound evaluation.
For the measurement of the inhibitory activity of compounds on interaction between KRAS G12C and cRAF-RBD, GMPPNP-bound KRAS G12C protein was incubated with various concentrations of compound in a reaction buffer (20 mM Tris-HCl (pH 7.5), 100 mM NaCl, 1 mM MgCl2, 1 mM TCEP. 0.1% Tween 20) at 25° C. for 1 hour. After the incubation, recombinant cRAF-RBD and Alpha detection reagents were added and incubated at room temperature for 1.5 hours for binding. Interaction of KRAS G12C and cRAF-RBD was monitored by measuring Alpha signal. Inhibition % was calculated using the signal from the reaction without test compound (DMSO control) as 0% inhibition and the signal from the reaction using GDP-bound KRAS G12C in place of GMPPNP-bound KRAS G12C as 100% inhibition. IC50 values were calculated from dose titration curve using curve fitting by XLfit software (IDBS). The following tables show the results.

[3] = system: MIA PaCa-2 cells; experiment: Growth inhibition activity on KRAS-G12C mutant cell line (MIA PaCa-2), CellTiter-Glo 3D; type: cell-based, human; conditions: MIA PaCa-2, 3-day culture with compound
Protocol: MIA PaCa-2 cells (given by Sumitomo Dainippon Pharma Co., Ltd.), which are a KRAS-G12C mutant human pancreas cancer cell line, were suspended in a 10% fetal bovine serum-containing RPMI1640 medium (manufactured by Fujifilm Wako Pure Chemical Corporation.). The cell suspension was seeded into each well of a 384-well U bottom microplate and cultured in an incubator containing 5% CO2 gas at 37° C. for 1 day. The compounds obtained in the “Preparation of Compounds” section were used as test compounds and were dissolved in DMSO, respectively, and each test compound was diluted with DMSO to give a concentration 500 times the final concentration. The resultant solution of the test compound in DMSO was diluted with the medium used for suspending cells and added to each well of the cell-culture plate to give a DMSO final concentration of 0.2%, followed by culture in an incubator containing 5% CO2 gas at 37° C. for another 3 days. The cell count after 3-day culture in the presence of the test compound was measured using CellTiter-Glo 3D Reagent (manufactured by Promega Corporation). All wells were added with CellTiter-Glo 3D Reagent and mixed for 10 minutes. 30 minutes after mixing, luminescence was measured by a plate reader. The growth inhibition rate was calculated from the following equation, and the concentration of the test compound at which 50/o inhibition was achieved (IC50 (nM)) was determined. The following tables show the results.
[formula] • T: the emission intensity in a well into which a test compound was added. • C: the emission intensity in a well into which a test compound was not added.

IC50 [2] [nM]	IC50 ([3]; Homo sapiens, MIA PaCa-2, 72 h) [nM]	IC50 [3] [nM]	Structure (SMILES)	binding rate [1]
97	200		Cc1nc2cc(-c3cccn4c(C(=O)c5cc(F)c(NC(=O)/C=C/CN[C@@H]6CCC[C@@H](F)C6)c(F)c5)ccc34)c(C(F)(F)F)cc2n1C (racemic) [Example 90, (E)-N-(4-(8-(1,2-dimethyl-6-(trifluoromethyl)-1H-benzo[d]imidazol-5-yl)indolizine-3-carbonyl-2,6-difluorophenyl)-4-(((1R,3R)-3-fluorocyclohexyl)amino)but-2-enamide and (E)-N-(4-(8-(1,2-dimethyl-6-(trifluoromethyl)-1H-benzo[d]imidazol-5-yl)indolizine-3-carbonyl)-2,6-difluorophenyl)-4-(((1S,3S)-3-fluorocyclohexyl)amino)but-2-enamide]	A (A binding rate of 80% or more is rated “A”)
83	280		Cc1nc2cc(-c3cccn4c(C(=O)c5cc(F)c(NC(=O)/C=C/CN[C@@H]6CCC[C@H](F)C6)c(F)c5)ccc34)c(C(F)(F)F)cc2n1C (racemic) [Example 94, (E)-N-(4-(8-(1,2-dimethyl-6-(trifluoromethyl)-1H-benzo[d]imidazol-5-yl)indolizine-3-carbonyl)-2,6-difluorophenyl)-4-(((1R,3S)-3-fluorocyclohexyl)amino)but-2-enamide and (E)-N-(4-(8-(1,2-dimethyl-6-(trifluoromethyl)-1H-benzo[d]imidazol-5-yl)indolizine-3-carbonyl)-2,6-difluorophenyl-4-(((1S,3R)-3-fluorocyclohexyl)amino)but-2-enamide]	A (A binding rate of 80% or more is rated “A”)
29		79	CO[C@H]1CC[C@H](NC/C=C/C(=O)Nc2c(F)cc(C(=O)c3ccc4c(-c5c(C)cc6c(ncn6C)c5Cl)cccn34)cc2F)CC1 (single isomer, unassigned) [Example 12-1, (E)-N-(4-(8-(4-chloro-1,6-dimethyl-1H-benzo[d]imidazol-5-yl)indolizine-3-carbonyl)-2,6-difluorophenyl)-4-(((1r,4r)-4-methoxycyclohexyl)amino)but-2-enamide]	A (A binding rate of 80% or more is rated “A”)
160		270	CO[C@H]1CC[C@H](NC/C=C/C(=O)Nc2c(F)cc(C(=O)c3ccc4c(-c5c(C)cc6c(ncn6C)c5Cl)cccn34)cc2F)CC1 (single isomer, unassigned) [Example 12-2, (E)-N-(4-(8-(4-chloro-1,6-dimethyl-1H-benzo[d]imidazol-5-yl)indolizine-3-carbonyl)-2,6-difluorophenyl)-4-(((1r,4r)-4-methoxycyclohexyl)amino)but-2-enamide]	B (a binding rate of 60% or more and less than 80% is rated “B”)
46		32	Cc1cc2c(ncn2C)c(Cl)c1-c1cccn2c(C(=O)c3cc(F)c(NC(=O)/C=C/CNC(C)(C)C)c(F)c3)ccc12 (single isomer, unassigned) [Example 13-1, (E)-4-(tert-butylamino)-N-(4-(8-(4-chloro-1,6-dimethyl-1H-benzo[d]imidazol-5-yl)indolizine-3-carbonyl)-2,6-difluorophenyl)but-2-enamide]	A (A binding rate of 80% or more is rated “A”)
320		220	Cc1cc2c(ncn2C)c(Cl)c1-c1cccn2c(C(=O)c3cc(F)c(NC(=O)/C=C/CNC(C)(C)C)c(F)c3)ccc12 (single isomer, unassigned) [Example 13-2, (E)-4-(tert-butylamino)-N-(4-(8-(4-chloro-1,6-dimethyl-1H-benzo[d]imidazol-5-yl)indolizine-3-carbonyl)-2,6-difluorophenyl)but-2-enamide]	A (A binding rate of 80% or more is rated “A”)
57	28		COc1cc2c(ncn2C)c(Cl)c1-c1cccn2c(C(=O)c3cc(F)c(NC(=O)/C=C/CNC(C)(C)C)c(F)c3)ccc12 (single isomer, unassigned) [Example 14-1, (E)-4-(tert-butylamino)-N-(4-(8-(4-chloro-6-methoxy-1-methyl-1H-benzo[d]imidazol-5-yl)indolizine-3-carbonyl)-2,6-difluorophenyl)but-2-enamide]	A (A binding rate of 80% or more is rated “A”)
56		42	COc1cc2c(ncn2C)c(Cl)c1-c1cccn2c(C(=O)c3cc(F)c(NC(=O)/C=C/CNC(C)(C)C)c(F)c3)ccc12 (single isomer, unassigned) [Example 14-2, (E)-4-(tert-butylamino)-N-(4-(8-(4-chloro-6-methoxy-1-methyl-1H-benzo[d]imidazol-5-yl)indolizine-3-carbonyl)-2,6-difluorophenyl)but-2-enamide]	A (A binding rate of 80% or more is rated “A”)
20.2		42.6	COc1c(-c2cc(F)cn3c(C(=O)c4cc(F)c(NC(=O)/C=C/CNC5(C)CC5)c(F)c4)cnc23)c(C(F)(F)F)cc2c1nc(C)n2C (single isomer, unassigned) [Example 112-1, (E)-N-(2,6-difluoro-4-(6-fluoro-8-(4-methoxy-1,2-dimethyl-6-(trifluoromethyl)-1H-benzo[d]imidazol-5-yl)imidazo[1,2-a]pyridine-3-carbonyl)phenyl)-4-((1-methylcyclopropyl)amino)but-2-enamide]	
